Measured values as given in patent publication US8952024B2, “Herbicidal pyrimidone derivatives” (E I du Pont de Nemours and Company, priority 2009, dated 2015).

Experiments:
Type in all cases: in vivo
rice (Oryza sativa) = assay: Test B flooded paddy test; details: for Plant response rating, Flood, Rice: 250 g ai/ha, flooded paddy test, visual rating on 0 to 100 scale (0 no effect, 100 complete control) after 13 to 15 days; for Plant response rating, Rice: Flood (flooded paddy test), 13 to 15 days; for Rice plant response rating: Flood, 31 g ai/ha, scale 0 to 100 (0 no effect, 100 complete control)
Summary of the method: (§1)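 Each compound is added to standing floodwater (3 cm above soil, maintained) in pots of 2-leaf-stage plants; greenhouse exposure lasts 13–15 d before visual comparison with controls on a 0–100 control scale.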

[1] = system: ducksalad (Heteranthera limosa); assay: Test B flooded paddy test; details: for Plant response rating, Flood, Ducksalad: 250 g ai/ha, flooded paddy test, visual rating on 0 to 100 scale (0 no effect, 100 complete control) after 13 to 15 days; for Plant response rating, Ducksalad: Flood (flooded paddy test), 13 to 15 days; for Ducksalad plant response rating: Flood, 31 g ai/ha, scale 0 to 100 (0 no effect, 100 complete control)
Summary of the method: as §1

[2] = system: barnyardgrass (Echinochloa crus-galli); assay: Test B flooded paddy test; details: for Plant response rating, Flood, Barnyardgrass: 250 g ai/ha, flooded paddy test, visual rating on 0 to 100 scale (0 no effect, 100 complete control) after 13 to 15 days; for Plant response rating, Barnyardgrass: Flood (flooded paddy test), 13 to 15 days; for Barnyardgrass plant response rating: Flood, 31 g ai/ha, scale 0 to 100 (0 no effect, 100 complete control)
Summary of the method: as §1

[3] = system: umbrella sedge (Cyperus difformis); assay: Test B flooded paddy test; details: for Plant response rating, Flood, Sedge, Umbrella: 250 g ai/ha, flooded paddy test, visual rating on 0 to 100 scale (0 no effect, 100 complete control) after 13 to 15 days; for Plant response rating, Sedge, Umbrella: Flood (flooded paddy test), 13 to 15 days; for Sedge, Umbrella plant response rating: Flood, 31 g ai/ha, scale 0 to 100 (0 no effect, 100 complete control)
Summary of the method: as §1

[4] = system: woolly cupgrass (Eriochloa villosa); assay: Test B pre-/postemergence plant response; details: for Cupgrass, Woolly plant response rating (0 to 100 scale): 62 g ai/ha, 0 is no effect, 13 to 15 days
Summary of the method: (§2)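 Visual ratings on a 0–100 scale (100 = complete control) were made versus untreated controls 13–15 days after treatment in a greenhouse. Compounds in surfactant-containing non-phytotoxic solvent were applied preemergence to seeds in loam–sand blend or postemergence to 1- to 4-leaf plants (2–18 cm).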

[5] = system: yellow nutsedge (Cyperus esculentus); assay: Test B pre-/postemergence plant response; details: for Nutsedge, Yellow plant response rating (0 to 100 scale): 62 g ai/ha, 0 is no effect, 13 to 15 days
Summary of the method: as §2

[6] = system: pigweed (Amaranthus retroflexus); assay: Test B pre-/postemergence plant response; details: for Pigweed plant response rating (0 to 100 scale): 62 g ai/ha, 0 is no effect, 13 to 15 days
Summary of the method: as §2

[7] = system: lambsquarters (Chenopodium album); assay: Test B pre-/postemergence plant response; details: for Lambsquarters plant response rating (0 to 100 scale): 62 g ai/ha, 0 is no effect, 13 to 15 days
Summary of the method: as §2

[8] = system: bermudagrass (Cynodon dactylon); assay: Test B pre-/postemergence plant response; details: for Bermudagrass plant response rating (0 to 100 scale): 62 g ai/ha, 0 is no effect, 13 to 15 days
Summary of the method: as §2

[9] = system: Surinam grass (Brachiaria decumbens); assay: Test B pre-/postemergence plant response; details: for Surinam Grass plant response rating (0 to 100 scale): 62 g ai/ha, 0 is no effect, 13 to 15 days
Summary of the method: as §2

[10] = system: wheat (Triticum aestivum); assay: Test B pre-/postemergence plant response; details: for Wheat plant response rating (0 to 100 scale): 62 g ai/ha, 0 is no effect, 13 to 15 days
Summary of the method: as §2

[11] = system: downy bromegrass (Bromus tectorum); assay: Test B pre-/postemergence plant response; details: for Bromegrass, Downy plant response rating (0 to 100 scale): 62 g ai/ha, 0 is no effect, 13 to 15 days
Summary of the method: as §2

[12] = 62 g ai/ha, scale of 0 to 100 where 0 is no effect and 100 is complete control
[13] = 125 g ai/ha, scale 0 to 100, 0 is no effect, 100 is complete control
[14] = 31 g ai/ha, postemergence, scale 0 to 100, 0 is no effect, 100 is complete control
[15] = postemergence, 100 is complete control
[16] = Postemergence, 125 g ai/ha, visual rating after 13 to 15 days, scale 0 (no effect) to 100 (complete control)
[17] = Postemergence, 250 g ai/ha, scale 0 to 100 (0 no effect, 100 complete control)
[18] = Postemergence, 125 g ai/ha, scale 0 to 100 (0 no effect, 100 complete control)

CC(C)n1c(-c2ccccc2)ncc(C(=O)C2=C(O)CCCC2=O)c1=O [Compound 95]
Plant response rating, Flood, Rice (rice (Oryza sativa)): 30 | Plant response rating, Rice (rice (Oryza sativa); [12]): 20 | Plant response rating, Rice (rice (Oryza sativa); [13]): 30 | Rice plant response rating (rice (Oryza sativa)): 0 | Plant response rating, Flood, Ducksalad [1]: 20 | Plant response rating, Ducksalad [1, 12]: 0 | Plant response rating, Ducksalad [1, 13]: 0 | Ducksalad plant response rating [1]: 0 | Plant response rating, Flood, Barnyardgrass [2]: 70 | Plant response rating, Barnyardgrass [2, 12]: 35 | Plant response rating, Barnyardgrass [2, 13]: 65 | Barnyardgrass plant response rating [2]: 20 | Plant response rating, Flood, Sedge, Umbrella [3]: 75 | Plant response rating, Sedge, Umbrella [3, 12]: 20 | Plant response rating, Sedge, Umbrella [3, 13]: 50 | Sedge, Umbrella plant response rating [3]: 0 | Plant response rating, Cupgrass, Woolly [4, 14]: 45 | Cupgrass, Woolly plant response rating (0 to 100 scale) [4, 15]: 55 | Plant response rating, Cupgrass, Woolly [4, 16]: 65 | Plant response rating, Cupgrass, Woolly [4, 17]: 65 | Plant response rating, Nutsedge, Yellow [5, 14]: 75 | Nutsedge, Yellow plant response rating (0 to 100 scale) [5, 15]: 75 | Plant response rating, Nutsedge, Yellow [5, 17]: 85 | Plant response rating, Pigweed [6, 14]: 85 | Pigweed plant response rating (0 to 100 scale) [6, 15]: 98 | Plant response rating, Pigweed [6, 17]: 100 | Plant response rating, Lambsquarters [7, 14]: 80 | Lambsquarters plant response rating (0 to 100 scale) [7, 15]: 98 | Plant response rating, Lambsquarters [7, 17]: 100 | Plant response rating, Bermudagrass [8, 14]: 45 | Bermudagrass plant response rating (0 to 100 scale) [8, 15]: 75 | Plant response rating, Bermudagrass [8, 16]: 75 | Plant response rating, Bermudagrass [8, 17]: 90 | Plant response rating, Surinam Grass [9, 14]: 45 | Surinam Grass plant response rating (0 to 100 scale) [9, 15]: 45 | Plant response rating, Surinam Grass [9, 17]: 70 | Plant response rating, Wheat [10, 14]: 0 | Wheat plant response rating (0 to 100 scale) [10, 15]: 0 | Plant response rating, Wheat [10, 17]: 0 | Plant response rating, Bromegrass, Downy [11, 14]: 0 | Bromegrass, Downy plant response rating (0 to 100 scale) [11, 15]: 0 | Plant response rating, Bromegrass, Downy [11, 16]: 0 | Plant response rating, Bromegrass, Downy [11, 17]: 0

CCCn1c(-c2ccc(F)cc2)ncc(C(=O)C2=C(O)CCCC2=O)c1=O [Compound 102]
Plant response rating, Flood, Rice (rice (Oryza sativa)): 35 | Plant response rating, Rice (rice (Oryza sativa); [12]): 15 | Plant response rating, Rice (rice (Oryza sativa); [13]): 20 | Rice plant response rating (rice (Oryza sativa)): 10 | Plant response rating, Flood, Ducksalad [1]: 85 | Plant response rating, Ducksalad [1, 12]: 40 | Plant response rating, Ducksalad [1, 13]: 80 | Ducksalad plant response rating [1]: 30 | Plant response rating, Flood, Barnyardgrass [2]: 70 | Plant response rating, Barnyardgrass [2, 12]: 60 | Plant response rating, Barnyardgrass [2, 13]: 60 | Barnyardgrass plant response rating [2]: 15 | Plant response rating, Flood, Sedge, Umbrella [3]: 75 | Plant response rating, Sedge, Umbrella [3, 12]: 40 | Plant response rating, Sedge, Umbrella [3, 13]: 65 | Sedge, Umbrella plant response rating [3]: 30 | Plant response rating, Cupgrass, Woolly [4, 14]: 70 | Cupgrass, Woolly plant response rating (0 to 100 scale) [4, 15]: 75 | Plant response rating, Cupgrass, Woolly [4, 18]: 75 | Plant response rating, Cupgrass, Woolly [4, 17]: 85 | Plant response rating, Nutsedge, Yellow [5, 14]: 45 | Nutsedge, Yellow plant response rating (0 to 100 scale) [5, 15]: 65 | Plant response rating, Nutsedge, Yellow [5, 18]: 75 | Plant response rating, Nutsedge, Yellow [5, 17]: 80 | Plant response rating, Pigweed [6, 14]: 70 | Pigweed plant response rating (0 to 100 scale) [6, 15]: 70 | Plant response rating, Pigweed [6, 18]: 95 | Plant response rating, Pigweed [6, 17]: 98 | Plant response rating, Lambsquarters [7, 14]: 95 | Lambsquarters plant response rating (0 to 100 scale) [7, 15]: 98 | Plant response rating, Lambsquarters [7, 18]: 100 | Plant response rating, Lambsquarters [7, 17]: 100 | Plant response rating, Bermudagrass [8, 14]: 80 | Bermudagrass plant response rating (0 to 100 scale) [8, 15]: 85 | Plant response rating, Bermudagrass [8, 18]: 85 | Plant response rating, Bermudagrass [8, 17]: 100 | Surinam Grass plant response rating (0 to 100 scale) [9, 15]: 75 | Plant response rating, Surinam Grass [9, 18]: 75 | Plant response rating, Surinam Grass [9, 17]: 85 | Wheat plant response rating (0 to 100 scale) [10, 15]: 10 | Plant response rating, Wheat [10, 18]: 20 | Plant response rating, Bromegrass, Downy [11, 14]: 0 | Bromegrass, Downy plant response rating (0 to 100 scale) [11, 15]: 10 | Plant response rating, Bromegrass, Downy [11, 18]: 10 | Plant response rating, Bromegrass, Downy [11, 17]: 30
